From the supplement of paper PMC5412046
Structures can show the parent of a compound that is named as a salt.

What was measured:
[1] = system: SB.msgc-1; assay: viability at highest tested concentration (MAXR) relative to DMSO; higher = less cytotoxic; details: SB.msgc-1 (sporadic gastric cancer)
Summary of the method: (§1)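 The values represent viability normalised to DMSO, expressed at the highest concentration or as trapezoidal area under the curve. Cells were hereditary or sporadic patient-derived gastric cancer cells, 500 in 5 μL medium per 1536 well. They were dosed with 23 nL of compound in DMSO by pintool over 11 threefold dilutions, with each compound's top concentration recorded. CellTiter-Glo was applied 48 h later for 30 min at room temperature before luminescence was read on a ViewLux.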

[2] = system: SB.mhdgc-1; assay: as above; details: SB.mhdgc-1 (hereditary c.1380delA CDH1 gastric cancer)
Summary of the method: as §1

[3] = system: SB.msgc-1; assay: area under the dose-response curve of % viability (trapezoidal, 11 doses) (% viability x log10 concentration); higher = less cytotoxic; details: SB.msgc-1 (sporadic gastric cancer)
Summary of the method: as §1

[4] = system: SB.mhdgc-1; assay: as above; details: SB.mhdgc-1 (hereditary c.1380delA CDH1 gastric cancer)
Summary of the method: as §1

Structure (SMILES)	viability [1]	viability [2]	area under the dose-response curve [3]	area under the dose-response curve [4]
CCC[S+]([O-])c1ccc2[nH]c(NC(=O)OC)nc2c1 (stereo not drawn) [Albendazole Oxide] (top concentration 46.0829 µM)	26.9%	42.7%	406	333
CC(=O)NC(C)c1ccc(Oc2ccc(OC(C)C)cc2)cc1 (stereo not drawn) [ACC1 BMS] (top concentration 46.0829 µM)	62.3%	45.2%	539	532
CC[C@H]1OC(=O)[C@H](C)[C@@H](O[C@H]2C[C@@](C)(OC)[C@@H](O)[C@H](C)O2)[C@H](C)[C@@H](O[C@@H]2O[C@H](C)C[C@H](N(C)C)[C@H]2O)[C@](C)(O)C[C@@H](C)CN(C)[C@H](C)[C@@H](O)[C@]1(C)O [Azithromycin (AZ)] (top concentration 46.0829 µM)	102%	41.2%	551	499
NC1CC1c1ccccc1 (stereo not drawn) [Tranylcypromine] (top concentration 46.0829 µM)	109%	106%	554	551
C[S+](=O)([O-])c1ccc([C@@H](O)[C@@H](CO)NC(=O)C(Cl)Cl)cc1 [Thiamphenicol] (top concentration 46.0829 µM)	83.5%	43.5%	508	462
CC1(C)CC\C2=C(/O1)C3=C(C=CC=C3)C(=O)C2=O [beta-Lapachone] (top concentration 46.0829 µM)	32.5%	2.91%	521	537
N#C/C(C(=O)c1ccc(Cl)cc1Cl)=C1/NC(=O)c2ccc(Cl)cc2N1 [Cilliobrevin D] (top concentration 46.0829 µM)	66.9%	81.9%	496	474
CCc1cc(C(N)=S)ccn1 [Ethionamide] (top concentration 46.0829 µM)	108%	129%	540	565
CN(C)C/C=C/C(=O)Nc1cc2c(Nc3ccc(F)c(Cl)c3)ncnc2cc1O[C@H]1CCOC1 [Afatinib] (top concentration 46.0829 µM)	41.3%	4.33%	228	433
NC(CO)C(=O)NNCc1ccc(O)c(O)c1O (stereo not drawn) [Benserazide] (top concentration 46.0829 µM)	104%	46.8%	520	558
O=C(Nc1cc(C(F)(F)F)cc(C(F)(F)F)c1)c1cc(Cl)ccc1O [IMD-0354] (top concentration 46.0829 µM)	8.74%	4.33%	380	320
CO/C1=C/C(C)=C\[C@@H](C)[C@@H](O)[C@@H](C)C/C(C)=C\C=C/[C@H](OC)[C@@H]([C@@H](C)[C@@H](O)[C@H](C)[C@@]2(O)C[C@@H](O)[C@H](C)[C@@H](C(C)C)O2)OC1=O [Bafilomycin A1] (top concentration 46.0829 µM)	0.826%	2.65%	84.7	111
CN(C)CCN(C)C(=O)c1ccc(NC(=O)Nc2ccc(-c3nc(N4CCOCC4)c4ccn(CC(F)(F)F)c4n3)cc2)cc1 (top concentration 46.0829 µM)	4.2%	2.92%	332	162
CN1CCc2c(n(Cc3ccc(C(=O)NO)cc3)c3ccccc23)C1 [Compound 7] (top concentration 46.0829 µM)	63%	74.4%	508	523
CN1CCN(CC1)C2=CC3=C([NH]C(=N3)C/4=C(\N)C5=C(F)C=CC=C5NC4=O)C=C2 [Dovitinib] (top concentration 46.0829 µM)	48.2%	17%	481	543
Cc1cccc(-c2[nH]c(C(C)(C)C)nc2-c2ccc3c(c2)OCO3)n1 (top concentration 46.0829 µM)	22.8%	7.36%	457	512
COc1ccc2nc3cc(Cl)ccc3c(Nc3cc(CN4CCCC4)c(O)c(CN4CCCC4)c3)c2n1 [Pyronaridine] (top concentration 46.0829 µM)	55.9%	88.9%	504	595
OC1=C(Cl)C=C(N\C2=C(\C(=O)NC2=O)C3=C(C=CC=C3)[N+]([O-])=O)C=C1 (top concentration 46.0829 µM)	53.3%	76.5%	490	415
COc1ccnc(C[S+]([O-])c2nc3cc(OC(F)F)ccc3[nH]2)c1OC (stereo not drawn) [Pantoprazole] (top concentration 46.0829 µM)	91.6%	109%	473	509
CC(C)(C)/[N+]([O-])=C/c1ccc([S+](=O)([O-])[O][Na])cc1[S+](=O)([O-])[O][Na] [Disufenton sodium] (top concentration 46.0829 µM)	88.8%	95.6%	525	532
CC\1=C(C(\N=C(/N1)C2=CC(=NC=C2)Cl)C3=C(F)C=C(Cl)C=C3)/C(=O)NC4=C(F)C=C5[NH]N=CC5=C4 (stereo not drawn) [GSK-25] (top concentration 46.0829 µM)	35%	30.4%	507	401

Structure (SMILES)	viability [1]	viability [2]	area under the dose-response curve [3]	area under the dose-response curve [4]
CN(C)CCCN\C1=C\2C(=O)N(C)C(=O)\N=C2N(C)C3=C1C=CC=C3 (top concentration 46.0829 µM)	55.9%	55.1%	518	433
NC\1=N\C(=O)N(\C=C1)[C@@H]2O[C@H](CO)[C@@H](O)[C@H]2O [Cytidine] (top concentration 46.0829 µM)	124%	109%	567	499
CC(C(C)N1CC(=O)NC(=O)C1)N1CC(=O)NC(=O)C1 (stereo not drawn) [ICRF-193] (top concentration 46.0829 µM)	93.8%	73.7%	479	478
C[C@]12CCC(=O)C=C1CC[C@@H]1[C@@H]2[C@@H](O)C[C@@]2(C)[C@H]1CC[C@]2(O)C(=O)CO [Hydrocortisone] (top concentration 46.0829 µM)	103%	101%	505	582
c1nc2c(NC3CCCCC3)nc(Nc3ccc(N4CCOCC4)cc3)nc2[nH]1 [Reversine] (top concentration 46.0829 µM)	15.7%	5.27%	538	499
CC[C@H]1OC(=O)[C@H](C)[C@@H](O[C@H]2C[C@@](C)(OC)[C@@H](O)[C@H](C)O2)[C@H](C)[C@@H](O[C@@H]2O[C@H](C)C[C@H](N(C)C)[C@H]2O)[C@](C)(OC)C[C@@H](C)C(=O)[C@H](C)[C@@H](O)[C@]1(C)O [Clarithromycin] (top concentration 46.0829 µM)	78.6%	26.2%	433	386
COC(=O)N[C@H](C(=O)N[C@@H](Cc1ccccc1)[C@@H](O)CN(Cc1ccc(-c2ccccn2)cc1)NC(=O)[C@@H](NC(=O)OC)C(C)(C)C)C(C)(C)C [Atazanavir sulfate] (top concentration 46.0829 µM)	68.5%	90.2%	530	572
CC(C)c1nc(CN(C)C(=O)N[C@H](C(=O)N[C@@H](Cc2ccccc2)C[C@H](O)[C@H](Cc2ccccc2)NC(=O)OCc2cncs2)C(C)C)cs1 [Ritonavir] (top concentration 46.0829 µM)	64.1%	55.8%	472	426
COc1cccc(OC)c1-c1cc(C(=O)NC2(C(=O)O)C3CC4CC(C3)CC2C4)nn1-c1ccnc2cc(Cl)ccc12 (stereo not drawn) [Meclinertant] (top concentration 46.0829 µM)	52.9%	89.8%	580	546
OC[C@H]1O[C@@H]2[C@@H](OC\3=N\C(=N)\C=C/[N@@]23)[C@@H]1O [Cyclocytidine HCl] (top concentration 46.0829 µM)	43.1%	23.9%	449	397
N#Cc1ccc(NC(=O)Nc2ccccc2Br)c2nn[nH]c12 (top concentration 46.0829 µM)	78.6%	95%	539	550
CC(NCc1ccc2c(c1)[nH]/c(=N\C(=O)c1ccc(-c3cn[nH]c3)s1)n2CC(C)(C)O)C(C)(C)C (stereo not drawn) (top concentration 46.0829 µM)	28.3%	1.16%	421	312
Cn1cc(-c2ccc3nnc(Sc4ccc5ncccc5c4)n3n2)cn1 [SGX-523] (top concentration 46.0829 µM)	61.2%	32.5%	502	483
CC[C@@H]([C@H](C)O)n1ncn(-c2ccc(N3CCN(c4ccc(OCC5CO[C@@](Cn6cncn6)(c6ccc(F)cc6F)C5)cc4)CC3)cc2)c1=O (stereo partly drawn) [Posaconazole] (top concentration 46.0829 µM)	25.3%	40.4%	440	448
O=C(Nc1ccccc1)Nc1ccc(-c2ccc(C(=O)[C@@H]3CCC[C@H]3C(=O)O)cc2)cc1 (top concentration 46.0829 µM)	46.8%	98.2%	510	530
C[C@]12CC[C@H]3[C@@H](CC[C@H]4NC(=O)\C=C/[C@]34C)[C@@H]1CC[C@@H]2C(=O)NC5=CC(=CC=C5C(F)(F)F)C(F)(F)F [Dutasteride] (top concentration 46.0829 µM)	31.9%	36.3%	463	561
CC[C@H]1/C=C\C=C/C[C@@H](C)[C@H](O)[C@@](C)(O)C(=O)[C@@H](C)[C@H](O)[C@@H](C)C(=O)[C@@H](C)[C@H](O)[C@@H](C)/C=C/C(=O)O[C@@H]2[C@H](C)[C@H](CC1)O[C@]1(CC[C@H](C)[C@H](C[C@@H](C)O)O1)[C@H]2C [Oligomycin A] (top concentration 46.0829 µM)	41%	8.61%	272	280
Cc1ccc2c(=O)c3cccc(CC(=O)O)c3oc2c1C [Vadimezan] (top concentration 46.0829 µM)	81.5%	36.3%	498	461
CN1CCN(c2c(F)cc3c(=O)c(C(=O)O)cn(CCF)c3c2F)CC1 [Fleroxacin] (top concentration 46.0829 µM)	80.3%	106%	527	497
Cc1cn([C@H]2C=C[C@@H](CO)O2)c(=O)[nH]c1=O [Stavudine] (top concentration 92.1659 µM)	55.4%	142%	498	559
COc1ccc(CCC(=O)Nc2nc3ccc(Cl)cc3s2)cc1OC (top concentration 46.0829 µM)	71.8%	78%	514	564
